In patent publication US20250214986A1, “P2X3 INHIBITOR COMPOUND, SALT THEREOF, POLYMORPH THEREOF AND USE THEREOF” (HUMANWELL HEATHCARE (GROUP) CO., LTD., priority 2022, published 2025):
Where a name gives a salt, the structure may show the parent alone.

Legend:
Type in all cases: physicochemical
[1] = Dynamic solubility experiment at 37° C.
Method: In the test, the purity, dynamic solubility and stability were tested using an Agilent 1260 high-performance liquid chromatograph, the molar ratio of salt-forming ions was tested using ion chromatography, and the analytical conditions are shown in Tables A-4 and A-5 below.
Solids at a feeding concentration of 10 mg/mL (calculated based on free base) were rotationally mixed with corresponding vehicles at 37° C. […] After sampling at each time point, the samples were centrifuged (at 10000 rpm) and filtered (through a 0.45 μm PTFE filter head). The HPLC concentrations and pH values of the filtrates were determined.
100.2 mg of NaCl and 50.3 mg of Triton X-100 were weighed into a 50 mL volumetric flask and then completely dissolved by addition of purified water. 816 μL of 1 M hydrochloric acid was added, and the pH was adjusted to 1.8 with 1 M hydrochloric acid or 1 M NaOH solution. The mixed solution was brought to the volume by addition of purified water.
170.5 mg of anhydrous NaH2PO4, 22.2 mg of NaOH, and 310.9 mg of NaCl were weighed into a 50 mL volumetric flask and then completely dissolved by addition of purified water. The pH was adjusted to 6.5 with 1 M hydrochloric acid or 1 M NaOH solution. The mixed solution was brought to the volume by addition of purified water. Subsequently, 55.1 mg of SIF powder was weighed into a 25 mL volumetric flask and completely dissolved with the above solution, and the mixed solution was brought to the volume.
0.21 mL of glacial acetic acid, 101.6 mg of NaOH, and 295.4 mg of NaCl were added into a 25 mL volumetric flask and then completely dissolved by addition of about 20 mL of purified water. The pH was adjusted to 5.0 with 1 M hydrochloric acid or 1 M NaOH solution. The mixed solution was brought to the volume by addition of purified water, and then 280.8 mg of SIF powder was weighed into the flask and completely dissolved.

[2] = Hygroscopicity by dynamic vapor sorption (DVS); conditions: for crystalline form after DVS test: 0% RH to 95% RH to 0% RH; for vapor sorption / hygroscopicity: 25° C./80% RH; for hygroscopicity: DVS
Method: Dynamic vapor sorption (DVS) curves were acquired on a DVS IntrInsic from Surface Measurement Systems (SMS). The relative humidity at 25° C. was corrected with the deliquescence points of LiCl, Mg(NO3)2, and KCl.
Starting at 0% RH, the test acquired the percentage changes in mass of the samples when the humidity changed (0% RH to 95% RH to 0% RH) at a constant temperature of 25° C.

[3] = Solid state stability (XRPD and HPLC); conditions: for change of HPLC purity after placement under the corresponding conditions: 60° C. sealed 1 day, 25° C./60% RH and 40° C./75% RH uncovered 1 week/1 month
Method: In the test, the purity, dynamic solubility and stability were tested using an Agilent 1260 high-performance liquid chromatograph, the molar ratio of salt-forming ions was tested using ion chromatography, and the analytical conditions are shown in Tables A-4 and A-5 below. [table]

[4] = 25° C./60% RH/uncovered, 1 week
[5] = 40° C./75% RH/uncovered, 1 week

Cc1cnc(-c2cc(O[C@@H](C)[C@@H](C)O)cc(C(=O)N[C@H](C)c3cnc(C(F)(F)F)nc3)c2F)s1 [Crystalline form A of maleate]
Crystalline form change ([1]; FaSSIF, 1 h): Yes^a | S: solubility ([1]; FaSSIF, 1 h): 0.006 mg/mL | pH of filtrate ([1]; FaSSIF, 1 h): 4.9 | Crystalline form change ([1]; FaSSIF, 4 h): Yes^a | S: solubility ([1]; FaSSIF, 4 h): 0.007 mg/mL | pH of filtrate ([1]; FaSSIF, 4 h): 4.7 | Crystalline form change ([1]; FaSSIF, 24 h): Yes^a | S: solubility ([1]; FaSSIF, 24 h): 0.007 mg/mL | pH of filtrate ([1]; FaSSIF, 24 h): 4.5 | Crystalline form change ([1]; FeSSIF, 1 h): Yes^a | S: solubility ([1]; FeSSIF, 1 h): 0.020 mg/mL | pH of filtrate ([1]; FeSSIF, 1 h): 4.9 | Crystalline form change ([1]; FeSSIF, 4 h): Yes^a | S: solubility ([1]; FeSSIF, 4 h): 0.020 mg/mL | pH of filtrate ([1]; FeSSIF, 4 h): 4.9 | Crystalline form change ([1]; FeSSIF, 24 h): Yes^a | S: solubility ([1]; FeSSIF, 24 h): 0.021 mg/mL | pH of filtrate ([1]; FeSSIF, 24 h): 4.9 | solubility in H2O compared with the other forms ([1]; H2O): highest solubility in H2O | Crystalline form change ([1]; H2O, 1 h): Yes^a | S: solubility ([1]; H2O, 1 h): 0.007 mg/mL | pH of filtrate ([1]; H2O, 1 h): 2.3 | Crystalline form change ([1]; H2O, 4 h): Yes^a | S: solubility ([1]; H2O, 4 h): 0.007 mg/mL | pH of filtrate ([1]; H2O, 4 h): 2.3 | Crystalline form change ([1]; H2O, 24 h): Yes^a | S: solubility ([1]; H2O, 24 h): 0.008 mg/mL | pH of filtrate ([1]; H2O, 24 h): 2.2 | Crystalline form change ([1]; SGF, 1 h): Yes^a | S: solubility ([1]; SGF, 1 h): 0.010 mg/mL | pH of filtrate ([1]; SGF, 1 h): 1.7 | Crystalline form change ([1]; SGF, 4 h): Yes^a | S: solubility ([1]; SGF, 4 h): 0.010 mg/mL | pH of filtrate ([1]; SGF, 4 h): 1.7 | Crystalline form change ([1]; SGF, 24 h): Yes^a | S: solubility ([1]; SGF, 24 h): 0.009 mg/mL | pH of filtrate ([1]; SGF, 24 h): 1.7 | crystalline form after DVS test ([2]; 25° C.): remained unchanged | vapor sorption when the humidity was more than 80% RH ([2]; 25° C., more than 80% RH): rapid vapor sorption | vapor sorption [2]: about 0.41% | hygroscopicity [2]: slight hygroscopicity | HPLC Purity (area %) [3, 4]: 99.71 area % | HPLC purity Relative to starting (%) [3, 4]: 100.00% | HPLC Purity (area %) [3, 5]: 99.65 area % | HPLC purity Relative to starting (%) [3, 5]: 99.94% | change of HPLC purity after placement under the corresponding conditions [3]: no significant change | HPLC Purity (area %) ([3]; 60° C./sealed, 1 day): 99.60 area % | HPLC purity Relative to starting (%) ([3]; 60° C./sealed, 1 day): 99.89% | HPLC Purity (area %) ([3]; Starting): 99.71 area %

Cc1cnc(-c2cc(O[C@@H](C)[C@@H](C)O)cc(C(=O)N[C@H](C)c3cnc(C(F)(F)F)nc3)c2F)s1 [Crystalline form A of hydrochloride]
Crystalline form change ([1]; FaSSIF, 1 h): Yes^a | S: solubility ([1]; FaSSIF, 1 h): 0.009 mg/mL | pH of filtrate ([1]; FaSSIF, 1 h): 5.2 | Crystalline form change ([1]; FaSSIF, 4 h): Yes^a | S: solubility ([1]; FaSSIF, 4 h): 0.009 mg/mL | pH of filtrate ([1]; FaSSIF, 4 h): 5.2 | Crystalline form change ([1]; FaSSIF, 24 h): Yes^a | S: solubility ([1]; FaSSIF, 24 h): 0.014 mg/mL | pH of filtrate ([1]; FaSSIF, 24 h): 5.2 | Crystalline form change ([1]; FeSSIF, 1 h): Yes^a | S: solubility ([1]; FeSSIF, 1 h): 0.030 mg/mL | pH of filtrate ([1]; FeSSIF, 1 h): 4.9 | Crystalline form change ([1]; FeSSIF, 4 h): Yes^a | S: solubility ([1]; FeSSIF, 4 h): 0.027 mg/mL | pH of filtrate ([1]; FeSSIF, 4 h): 4.9 | Crystalline form change ([1]; FeSSIF, 24 h): Yes^a | S: solubility ([1]; FeSSIF, 24 h): 0.023 mg/mL | pH of filtrate ([1]; FeSSIF, 24 h): 4.9 | Crystalline form change ([1]; H2O, 1 h): Yes^a | S: solubility ([1]; H2O, 1 h): 0.004 mg/mL | pH of filtrate ([1]; H2O, 1 h): 2.1 | Crystalline form change ([1]; H2O, 4 h): Yes^a | S: solubility ([1]; H2O, 4 h): 0.003 mg/mL | pH of filtrate ([1]; H2O, 4 h): 2.1 | Crystalline form change ([1]; H2O, 24 h): Yes^a | S: solubility ([1]; H2O, 24 h): 0.004 mg/mL | pH of filtrate ([1]; H2O, 24 h): 2.1 | solubility at 24 h ([1]; SGF, 37 °C, pH 1.8, simulated gastric fluid, thermodynamic from solid, SGF, 24 h, read-out: S: solubility): 0.011 mg/mL | Crystalline form change ([1]; SGF, 1 h): Yes^a | S: solubility ([1]; SGF, 1 h): 0.014 mg/mL | pH of filtrate ([1]; SGF, 1 h): 1.6 | Crystalline form change ([1]; SGF, 4 h): Yes^a | S: solubility ([1]; SGF, 4 h): 0.011 mg/mL | pH of filtrate ([1]; SGF, 4 h): 1.6 | Crystalline form change ([1]; SGF, 24 h): Yes^a | pH of filtrate ([1]; SGF, 24 h): 1.6 | crystalline form after DVS test ([2]; 25° C.): remained unchanged | vapor sorption [2]: about 0.49% | hygroscopicity [2]: slight hygroscopicity | HPLC Purity (area %) [3, 4]: 99.57 area % | HPLC purity Relative to starting (%) [3, 4]: 99.98% | HPLC Purity (area %) [3, 5]: 99.58 area % | HPLC purity Relative to starting (%) [3, 5]: 99.99% | change of HPLC purity after placement under the corresponding conditions [3]: no significant change | HPLC Purity (area %) ([3]; 60° C./sealed, 1 day): 99.58 area % | HPLC purity Relative to starting (%) ([3]; 60° C./sealed, 1 day): 99.99% | HPLC Purity (area %) ([3]; Starting): 99.59 area %
